Source: patent US7033829B2, “Method to inhibit cell growth using oligonucleotides” (Trustees of Boston University, priority 2000, dated 2006)
{P} = phosphate

How the values were obtained:
S91 cells = test: Cellular uptake of FAM-labeled oligonucleotides in S91 cells; type: in vitro ADME, mouse; settings: 4 hours
Method: Fluorescein phosphoramidite (FAM) labeled oligonucleotides were added to cultures of S91 cells for 4 hours and the cells were then prepared for confocal microscopy. Nuclei, identified by staining with propidium iodide, appeared red and FAM-labeled oligonucleotides appeared green. Co-localization of red and green signals was assigned a yellow color by the computer. […] There was no change in the profile of oligonucleotide uptake after 6 and 24 hours.

[1] = test system: Cloudman S91 mouse melanoma cells; test: Melanin content of Cloudman S91 melanoma cells; type: cell-based; settings: FIG. 16
Method: The induction of melanogenesis in Cloudman S91 mouse melanoma cells by a five-nucleotide oligomer CATAC (SEQ ID NO: 6) and a nine-nucleotide oligomer, GAGTATGAG (SEQ ID NO: 1) was examined. Duplicates of Cloudman S91 murine melanoma cells were incubated with either 100 μM oligo or an equal volume of diluent (H2O) for 5 days. The cells were then collected, counted, and an equal number of cells were pelleted for melanin analysis. […] Variations of this oligonucleotide were evaluated: a scrambled 9-mer (TAGGAGGAT; SEQ ID NO: 2) and two truncated versions, a 7-mer (AGTATGA; SEQ ID NO: 3) and second 5-mer (GTATG; SEQ ID NO: 4). […] The truncated versions (SEQ ID NOs: 3 and 4) were also active, inducing 640% and 670% increases, respectively.
Cultures of Cloudman S91 murine melanoma cells were treated for 5 days with SEQ ID NO: 1, SEQ ID NO: 6, pTpT as a positive control, or an equal volume of diluent as a negative control. […] SEQ ID NO: 6 produced a slight increase in melanin, to 165+/−77% of control levels. SEQ ID NO: 1 stimulated melanin content to an average of 600+/−260% of control levels.
pTpT, shown previously to stimulate pigmentation in these cells, was used as a reference treatment, and diluent alone was used as a negative control. After five days of treatment with the oligonucleotides, the cells were collected, counted, and an equal number of cells were pelleted for melanin analysis. […] SEQ ID NO: 5, representing the telomere over-hang sequence, also at 10 μM, increased the melanin level to 10 times that of control cells.
S91 cells were cultured in the presence of diluent alone, pTpT p9mer (SEQ ID NO: 1), p7mer (AGTATGA; SEQ ID NO: 7) or p5mer #2 (SEQ ID NO: 4). […] Both SEQ ID NOS: 4 and 7 stimulated a 7–8 fold increase in melanin.
S91 cells were cultured for 5 days in the presence of the thymidine dinucleotides or SEQ ID NO: 1 with or without a 5′ phosphate or diluent alone as a negative control.
Cultures of S91 mouse melanoma cells (100,000 cells/38 cm^2) were treated with 100 μM pTpT or phosphorothioate pTpT (pTspT) (FIG. 22) or 40 μM 11mer-1 or the phosphorothioate 11mer-1 (11mer-1-S) (FIG. 23) for 6 days and were then collected, counted and assayed for melanin content.
Duplicate cultures of S91 cells (100,000 cells/39 cm^2) were either sham-irradiated or irradiated with 5 mJ/cm^2 solar-simulated light from a 1 kW xenon arc solar-simulator (XMN 1000-21, Optical Radiation, Azuza, Calif.) metered at […] using a research radiometer (model IL1700A, International Light, Newburyport, Mass.). Two sham-irradiated plates were then supplemented with 100 μM pTspT and two irradiated cultures were similarly treated with pTspT. After one week, cells were collected, counted and analyzed for melanin content by dissolving the cell pellets in 1 N NaOH and measuring the optical density at […]. […] However, this response was blocked by the addition of pTspT (FIG. 24). In addition, the constitutive pigmentation of these cells was reduced by the pTspT in the sham-irradiated cultures, similar to the data presented in FIGS. 22 and 23.

TNF-α gene = test: TNFα promoter CAT reporter transgene in skin; type: in vivo, mice; settings: intracutaneous pTpT 100 μM; LPS 1 μg/ml
Method: In another experiment, TNF-α gene activation was measured by utilizing mice carrying a CAT reporter transgene bearing the entire TNFα promoter and 3′-untranslated region. Transgenic mice were subjected to the following treatment prior to skin assay for CAT expression: UVB irradiation (200–700 J/m^2), intracutaneous injection of pTpT (100 μM); lipopolysaccharide (LPS 1 μg/ml) as positive control, or vehicle alone.

[2] = test system: GADD 45, ERCC 3 and SDI 1 mRNA; test: Northern blot of GADD 45, ERCC 3 and SDI 1 in SCC12F cells; type: cell-based, human; settings: 100 μM; as early as 24 hours, several days
Method: Paired cultures of SCC12F cells were maintained in a Dulbecco's modified Eagle's Medium-based keratinocyte growth medium (DMEM; GIBCO/BRL, Gaithersburg, Md.) supplemented with 10% fetal calf serum (Hyclone Labs, Logan, Utah) and epidermal growth factor as described (Hollander, M. C. et al., J. Biol. Chem. 268:328–336 (1992)). Pre-confluent cultures were given fresh medium supplemented with either 100 μM T2, or an equal volume of diluent. Cells were collected daily after additions, and processed for total RNA isolation using the Tri-Reagent extraction method (Molecular Research Center, Cincinnati, Ohio) following the protocol of the manufacturer. Ten micrograms of RNA from each sample was gel electrophoresed, transferred to a nylon filter and probed as described previously (Nada, A. et al., Exp. Cell Res. 211:90–98 (1994)). The cDNA for GADD 45 was generated by PCR using primers based on the human GADD 45 gene sequence (Mitsudomi, T. et al., Oncogene 7:171–180 (1992)). The cDNA for ERCC 3 was purchased from the American Type Culture Collection (ATCC, Rockville, Md.). The SDI 1 cDNA was a gift of Dr. J. Smith and has been described previously (Walworth, N.C. and Bernards, R., Science 271:353–356 (1996)).

[3] = test system: Human squamous carcinoma cell line SCC12F cells; test: Cell growth / cell yield of SCC12F cells (Coulter counter); type: cell-based; settings: 100 μM; days 1, 3, 4, 5 after dosage
Method: Human squamous carcinoma cell line SCC12F cells were maintained in primary keratinocyte medium (300 ml DME, 100 ml F-12 nutrient supplement, 50 ml 10× adenine, 50 ml fetal bovine serum, 5 ml penicillin/streptomycin stock, and 0.5 ml of 10 μg/ml epidermal growth factor and hydrocortisone to final concentration of 1.4 μg/ml) and dosed with either water (diluent), 100 μM pTpT (T2, Midland Certified Reagent Company, Midland, Tex.) or 100 μM pdApdA (A2). Cells were harvested before dosing (day 0), and 1, 3, 4, and 5 days after dosage, and were counted by Coulter™ counter. After harvesting, the cells were processed for total RNA isolation and were analyzed by Northern blot. Addition of a control deoxyadenine dinucleotide (pdApdA), a compound very similar to pTpT but not readily dimerized by UV irradiation, and therefore rarely excised during the course of UV-induced DNA repair, has no effect.
In a second experiment, SCC12F cells were cultured as described above. Two or three days after seeding, the preconfluent cultures were given fresh medium supplemented with either 100 μM T2 or diluent as a control. Cells were collected daily by trypsinization and counted by Coulter™ counter. The cell yield in cultures treated with T2 was reduced by […] compared to that of paired control cultures after five days (FIG. 2). This corresponds to 2.3 population doublings in this time for control cells, compared with 1 doubling for T2-treated cells.
pTpT was previously found to inhibit cell cycle progression, at least in part through activation of p53 and subsequent upregulation of the cyclin dependent kinase inhibitor p21. Cultures of the human keratinocyte line SCC12F were treated with pTpT, SEQ ID NO: 1, SEQ ID NO: 6 or diluent alone as a negative control, collected and counted 48 hours later and processed for northern blot analysis of p21 mRNA expression. […] Thus, the sequences of the present invention activate p53 and inhibit cell proliferation similar to the effect of pTpT.
Exposure of keratinocytes to UVB irradiation affects the expression of genes involved in cell cycle arrest, DNA repair and cytokine production. Single-stranded oligonucleotides sharing sequence homology with the telomere 3′ overhang, when introduced into cells, mimic these UV effects. To identify other genes that may be similarly modulated, cells of keratinocyte origin (SCC12F; a human epidermal squamous cell carcinoma line provided by Dr. James Rheinwald of Harvard University) were exposed to solar simulated irradiation (SSR) (20 mJ/cm^2, measured at 285±5 nm), to an 11-base oligonucleotide (pGTTAGGGTTAG; SEQ ID NO:5) homologous to the telomere overhang (T-oligo), or to a complementary sequence as control [pCTAACCCTAAC; (SEQ ID NO:9) control oligonucleotide]. […] These are mitochondrial-transcribed genes whose encoded proteins participate in cellular respiration.

contact hypersensitivity = test: Contact hypersensitivity to DNFB (ear swelling); type: in vivo, C57B16 mice; settings: 30 μl of 100 μM BID×5d topical to abdominal skin before sensitization
Method: C57B16 mice were subjected to the following treatment prior to sensitization with the allergen DNFB, by topical administration to abdominal skin; no pretreatment, UVB irradiation (200 J/m^2/dx4d), pTpT, pApA, or vehicle alone (30 μl of 100 μM BID×5d).

pGCATGCATGCATTACGTACG (DNA, 5' {P}, backbone not given here) [SEQ ID NO: 8]
cellular uptake and localization (confocal microscopy, FACS) (S91 cells): pattern of fluorescence very similar to that seen with phosphorylated SEQ ID NO: 1
pigmentation relative to control cells [1]: twice the level of control cells

lipopolysaccharide [LPS, reference compound]
CAT activity in skin (TNF-α gene): CAT activity was detected

deoxyadenine dinucleotide [pdApdA, reference compound]
mRNAs for GADD 45, ERCC 3 and SDI 1 [2]: less effective or ineffective
cell growth rate [3]: has no effect
ear swelling responses to DNFB challenge (contact hypersensitivity): 2.5±0.6
